Assay [1] addresses T1, MCT4 (Homo sapiens, UniProt O15427).
T1 sequence (O15427 1-465): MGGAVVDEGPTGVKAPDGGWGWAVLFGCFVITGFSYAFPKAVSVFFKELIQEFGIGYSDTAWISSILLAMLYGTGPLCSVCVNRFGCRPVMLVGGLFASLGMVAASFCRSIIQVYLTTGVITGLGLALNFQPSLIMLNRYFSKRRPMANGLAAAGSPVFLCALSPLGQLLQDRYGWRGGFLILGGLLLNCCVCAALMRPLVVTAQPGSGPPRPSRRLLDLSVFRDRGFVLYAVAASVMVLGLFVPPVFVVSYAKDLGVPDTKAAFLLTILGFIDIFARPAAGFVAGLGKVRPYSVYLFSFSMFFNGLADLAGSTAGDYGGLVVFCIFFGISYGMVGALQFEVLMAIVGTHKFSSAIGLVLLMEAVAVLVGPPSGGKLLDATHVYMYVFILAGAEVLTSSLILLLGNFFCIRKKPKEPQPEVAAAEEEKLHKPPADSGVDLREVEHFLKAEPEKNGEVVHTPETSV
The assay is described as follows: Assay (a): lactate efflux from SK-Br-3 cells (lactate in media, 4 h). The conditions noted are these: mean of at least three repeats (Example 32, marked *, two repeats), read-out: MCT4 lactate efflux pIC50 (SKBR3) (converted). The assay is classed as cell-based. Set-up: a natively glycolytic human breast adenocarcinoma line predominantly expressing MCT4; host or cells: SK-Br-3. As for the experimental part:
Assay plates were lidded and incubated for 4 hours at 37° C. and 5% CO2.

For assay [2], the target named is T1, MCT4. The assay can be described thus: cell-based.
Protocol: Cells were loaded with the pH sensitive dye BCECFAM(Invitrogen #B11150) before being washed to remove excess dye and seeded into the assay plates—directly onto the test compound—at a density of 15,000 cells/well (NCI—H358) or 30,000 cells/well (K562), in 30 μl HBSS with 1 mM [final] […] Assay plates were lidded and spun in a plate centrifuge at 170 g for 1 minute. Plates were then wrapped in foil and incubated in the dark for 1 hour at room temperature.
Following incubation with test compound, 10 μl of 25 mM Sodium-L-Lactate (Sigma #L7022) made up in HBSS with 1 mM [final] […] This addition was performed directly on the FLIPR Tetra platform (Molecular Devices) as part of a real-time kinetic read protocol. […] A percentage change from base-line was calculated for each test well and values normalised to control wells—treated with either DMSO (maximum assay signal) or chemistry related to that described in this patent (minimum assay signal)—before fitting concentration response curves to determine an IC50 value.

Results on 17 molecules are retold here after patent US12503473B2, “Triazolopyrimidine compounds and their use in treating cancer” (Dizal (Jiangsu) Pharmaceutical Co., Ltd., priority 2018, dated 2025).

pIC50: −log10 of the molar value.

What is called pIC50 is −log10 of the IC50, conventionally taken in molar units. Read a low pIC50 as a large IC50. Take `Cc1nc2nc(C)c(C[C@@H]3CCN(c4cnc(-c5ccc(CN6CCN(C)C[C@@H]6C)cc5)nc4)C3)c(C)n2n1` [Example 10, 6-(((R)-1-(2-(4-(((S)-2,4-dimethylpiperazin-1-yl)methyl)phenyl)pyrimidin-5-yl)pyrrolidin-3-yl)methyl)-2,5,7-trimethyl-[1,2,4]triazolo[1,5-a]pyrimidine]: the IC50 in assay [1] is 0.501 nM. The same molecule had a negative-log IC50 (pIC50) in assay [2] of 7.50.

In the case of `Cc1nc2nc(C)c(C[C@@H]3CCN(c4cnc(-c5ccc(CN6CCOCC6)nc5)nc4)C3)c(C)n2n1` [Example 11, (R)-4-((5-(5-(3-((2,5,7-trimethyl-[1,2,4]triazolo[1,5-a]pyrimidin-6-yl)methyl)pyrrolidin-1-yl)pyrimidin-2-yl)pyridin-2-yl)methyl)morpholine], in assay [1], the IC50 was 0.316 nM. In assay [2], this molecule had a negative logarithm of the IC50 (pIC50) of 8.10.

For `Cc1nc2nc(C)c(C[C@@H]3CCN(c4cnc(-c5ccc(CN6CCN(CCO)CC6)cc5)nc4)C3)c(C)n2n1` [Example 16, (R)-2-(4-(4-(5-(3-((2,5,7-trimethyl-[1,2,4]triazolo[1,5-a]pyrimidin-6-yl)methyl)pyrrolidin-1-yl)pyrimidin-2-yl)benzyl)piperazin-1-yl)ethanol], the IC50 in assay [1] was 0.501 nM. Moreover, the negative-log IC50 (pIC50) in assay [2] was 7.50.

In the case of `Cc1nc2nc(C)c(C[C@@H]3CCN(c4cnc(-c5ccc(CN6CCOCC6)cc5)nc4)C3)c(C)n2n1` [Example 19, (R)-4-(4-(5-(3-((2,5,7-trimethyl-[1,2,4]triazolo[1,5-a]pyrimidin-6-yl)methyl)pyrrolidin-1-yl)pyrimidin-2-yl)benzyl)morpholine], the IC50 in assay [1] is 0.2 nM. Also, in assay [2], the pIC50 is 8.10.

Regarding `Cc1nc2nc(C)c(C[C@@H]3CCN(c4cnc(-c5ccc(CN6CCN(C)CC6)cc5)nc4)C3)c(C)n2n1` [Example 20, (R)-2,5,7-trimethyl-6-((1-(2-(4-((4-methylpiperazin-1-yl)methyl)phenyl)pyrimidin-5-yl)pyrrolidin-3-yl)methyl)-[1,2,4]triazolo[1,5-a]pyrimidine], in assay [1], the IC50 was 0.501 nM. The molecule further showed a pIC50 in assay [2] of 7.40.

With `Cc1nc2nc(C)c(C[C@@H]3CCN(c4ccc(-c5cnc(CN6CCN(C)CC6)cn5)cc4)C3)c(C)n2n1` [Example 21, (R)-2,5,7-trimethyl-6-((1-(4-(5-((4-methylpiperazin-1-yl)methyl)pyrazin-2-yl)phenyl)pyrrolidin-3-yl)methyl)-[1,2,4]triazolo[1,5-a]pyrimidine], in assay [1], the IC50 is 1.26 nM. In assay [2], this molecule gave a pIC50 of 7.70.

With `Cc1nc2nc(C)c(C[C@@H]3CCN(c4ccc(-c5ccc(CN6CCOCC6)cn5)cc4)C3)c(C)n2n1` [Example 23, (R)-4-((6-(4-(3-((2,5,7-trimethyl-[1,2,4]triazolo[1,5-a]pyrimidin-6-yl)methyl)pyrrolidin-1-yl)phenyl)pyridin-3-yl)methyl)morpholine], the IC50 in assay [1] was 0.398 nM. The molecule also had a pIC50 in assay [2] of 8.20.

Regarding `Cc1nc2nc(C)c(C[C@@H]3CCN(c4ccc(-c5ccc(CN6CCN(C)CC6)cn5)cc4)C3)c(C)n2n1` [Example 27, (R)-2,5,7-trimethyl-6-((1-(4-(5-((4-methylpiperazin-1-yl)methyl)pyridin-2-yl)phenyl)pyrrolidin-3-yl)methyl)-[1,2,4]triazolo[1,5-a]pyrimidine], in assay [1], the IC50 is 0.631 nM. The pIC50 in assay [2] was 7.70.

For `COc1cc(CN2CCN(C)CC2)ccc1-c1ncc(N2CC[C@@H](Cc3c(C)nc4nc(C)nn4c3C)C2)nc1C` [Example 31, (R)-6-((1-(5-(2-methoxy-4-((4-methylpiperazin-1-yl)methyl)phenyl)-6-methylpyrazin-2-yl)pyrrolidin-3-yl)methyl)-2,5,7-trimethyl-[1,2,4]triazolo[1,5-a]pyrimidine], the IC50 in assay [1] is 3.16 nM. Further, the pIC50 in assay [2] is 7.30.

On to `Cc1nc2nc(C)c(C[C@@H]3CCN(c4cnc(-c5ccc(CN6CCCCC6)cc5)cn4)C3)c(C)n2n1` [Example 37, 2,5,7-trimethyl-6-[[(3R)-1-[5-[4-(1-piperidylmethyl)phenyl]pyrazin-2-yl]pyrrolidin-3-yl]methyl]-[1,2,4]triazolo[1,5-a]pyrimidine], for which the IC50 in assay [1] was 0.398 nM. Moreover, the pIC50 in assay [2] was 8.20.

`CCN1CCN(Cc2ccc(-c3cnc(N4CC[C@@H](Cc5c(C)nc6nc(C)nn6c5C)C4)cn3)cc2)CC1` [Example 38, (R)-6-((1-(5-(4-((4-ethylpiperazin-1-yl)methyl)phenyl)pyrazin-2-yl)pyrrolidin-3-yl)methyl)-2,5,7-trimethyl-[1,2,4]triazolo[1,5-a]pyrimidine]: the IC50 in assay [1] is 3.98 nM. The molecule also showed a negative logarithm of the IC50 (pIC50) in assay [2] of 7.50.

As to `Cc1nc2nc(C)c(C[C@@H]3CCN(c4cnc(-c5ccc(CN6C[C@@H](C)N[C@@H](C)C6)cc5)cn4)C3)c(C)n2n1` [Example 40, 6-(((R)-1-(5-(4-(((3R,5S)-3,5-dimethylpiperazin-1-yl)methyl)phenyl)pyrazin-2-yl)pyrrolidin-3-yl)methyl)-2,5,7-trimethyl-[1,2,4]triazolo[1,5-a]pyrimidine], the IC50 in assay [1] was 1.26 nM. Also, the pIC50 in assay [2] was 7.20.

Consider `COc1cc(CN2CCN(C)CC2)ccc1-c1cnc(N2CC[C@@H](Cc3c(C)nc4nc(C)nn4c3C)C2)cn1` [Example 43, (R)-6-((1-(5-(2-methoxy-4-((4-methylpiperazin-1-yl)methyl)phenyl)pyrazin-2-yl)pyrrolidin-3-yl)methyl)-2,5,7-trimethyl-[1,2,4]triazolo[1,5-a]pyrimidine], for which the IC50 in assay [1] was 0.631 nM. This molecule also had a pIC50 in assay [2] of 7.70.

Regarding `Cc1nc2nc(C)c(C[C@@H]3CCN(c4cnc(-c5ccc(CN6CCOCC6)cn5)c(C)n4)C3)c(C)n2n1` [Example 47, (R)-4-((6-(3-methyl-5-(3-((2,5,7-trimethyl-[1,2,4]triazolo[1,5-a]pyrimidin-6-yl)methyl)pyrrolidin-1-yl)pyrazin-2-yl)pyridin-3-yl)methyl)morpholine], in assay [1], the IC50 is 2 nM. The molecule also showed a pIC50 in assay [2] of 8.00.

For `Cc1nc2nc(C)c(C[C@@H]3CCN(c4cnc(-c5ccc(CN6CCN(C)[C@@H](C)C6)cc5)cn4)C3)c(C)n2n1` [Example 48, 6-(((R)-1-(5-(4-(((S)-3,4-dimethylpiperazin-1-yl)methyl)phenyl)pyrazin-2-yl)pyrrolidin-3-yl)methyl)-2,5,7-trimethyl-[1,2,4]triazolo[1,5-a]pyrimidine], in assay [1], the IC50 is 1.58 nM. In assay [2], this molecule gave a pIC50 of 8.00.

For the molecule `Cc1nc2nc(C)c(C[C@@H]3CCN(c4cnc(-c5ccc(CN6CCOCC6)nc5)cn4)C3)c(C)n2n1` [Example 49, (R)-4-((5-(5-(3-((2,5,7-trimethyl-[1,2,4]triazolo[1,5-a]pyrimidin-6-yl)methyl)pyrrolidin-1-yl)pyrazin-2-yl)pyridin-2-yl)methyl)morpholine], the IC50 in assay [1] is 0.631 nM. Besides, the negative-log IC50 (pIC50) in assay [2] was 8.10.

On to `Cc1nc2nc(C)c(C[C@@H]3CCN(c4cnc(-c5ccc(CN6CCN(S(C)(=O)=O)CC6)cc5)cn4)C3)c(C)n2n1` [Example 52, 2,5,7-trimethyl-6-({(3R)-1-[5-(4-{[4-(methylsulfonyl)piperazin-1-yl]methyl}phenyl)pyrazin-2-yl]pyrrolidin-3-yl}methyl)[1,2,4]triazolo[1,5-a]pyrimidine], for which, in assay [1], the IC50 is 0.2 nM. Further, the negative logarithm of the IC50 (pIC50) in assay [2] is 8.00.
